The NIST ThermoML archive (doi:10.1021/je9005344)
Numbers after ± are expanded uncertainties.

Details: 298.15 K, 101.3 kPa, Liquid; for viscosity: Capillary tube (Ostwald / Ubbelohde) method; for speed of sound: Pulse-echo method; for mass density: Vibrating tube method

Row | viscosity | speed of sound | mass density | Compound
1 | 1.512 ± 0.013 mPa·s | 1343.5 ± 1.2 m/s | 960.978 ± 0.23 kg/m3 | COCCO [2-methoxyethan-1-ol]
2 | 11.19 ± 0.077 mPa·s | 1379.9 ± 1.2 m/s | 826.47 ± 0.23 kg/m3 | CCCCCCCCCCO [decan-1-ol]
3 | 4.439 ± 0.033 mPa·s | 1303.2 ± 1.2 m/s | 815.265 ± 0.23 kg/m3 | CCCCCCO [hexan-1-ol]
4 | 7.143 ± 0.051 mPa·s | 1347.6 ± 1.2 m/s | 821.794 ± 0.23 kg/m3 | CCCCCCCCO [octan-1-ol]
